A short description of data set [1]: Experimental solubility of [Nxxxx]y[VBH] active materials (maximum concentration by UV-Vis spectroscopy). Type of data set: physicochemical. The settings on record: anhydrous, organic solvent or mixture, read-out: Experimental solubility (maximum concentration of VBH in the electrolyte). The text has this:
To investigate the solubilities of VBH-based active materials, we synthesized the alkylammonium [VBH] compounds in their reduced (+4) and oxidized (+5) states ([Nxxxx]2[V(+4)BH] and [Nxxxx][V(+5)BH], where x = 1 (methyl), 2 (ethyl), 3 (n-propyl), 4 (n-butyl)) and measured their solubilities in tetrahydrofuran (THF), acetonitrile (MeCN), dimethyl sulfoxide (DMSO), and propylene carbonate (PC). […] This led us to explicitly explore the interplay between competing trends in solvation energy and lattice enthalpy, which was implied by our previous work,[5] using a combined computational and synthetic strategy.
UV-Vis spectra were collected using the Evolution 220 UV-visible spectrophotometer with a quartz cuvette of 1 cm path length. The molar extinction coefficients for oxidized and reduced species in all solvents except for DMSO were used as determined in our previous study.[5] Molar extinction coefficients for oxidized species in DMSO were determined from a calibration curve. Infrared spectra were collected on a Thermo Scientific Nicolet iS5 equipped with iD7ATR module and a diamond crystal. ^1H- and ^13C-NMRs were performed on Bruker AVANCE III HD 400 MHz High-Performance Digital NMR spectrometer operating at 400 MHz for ^1H NMR and 101 MHz for ^13C NMR. Data acquisition was performed on IconNMR 5.0.3, and spectra were processed in TopSpin 3.5 and Mnova. High-Resolution Mass Spectrometry (HRMS) was performed on a Waters ACQUITY UPLC Xevo QTOF high resolution mass spectrometer using electrospray ionization. X-ray crystallographic experiments were performed on a Bruker D8 Venture X-instrument, using Mo Kα radiation at 200 K. Data were corrected for absorption using SADABS. The structures were solved by direct methods. All non-hydrogen atoms were refined anisotropically by full matrix least-squares on F^2 and all hydrogen atoms except those on water were placed in calculated positions with appropriate riding parameters. Further refinement and molecular graphics were obtained using Bruker Suite of structural programs,[55] OLEX2,[56] and Mercury.[57]
Hydroxylamine hydrochloride (Alfa Aesar), sodium hydroxide (Acros organics), chloroacetic acid (BTC), zinc acetate dihydrate (Acros Organics), calcium chloride (VWR), tetramethylammonium fluoride tetrahydrate (Matrix Scientific), tetraethylammonium fluoride (BTC), triethylamine (Acros Organics), n-butylbromide (Alfa Aesar), n-propylbromide (BTC), ferrocenium hexafluorophosphate (Sigma Aldrich), and vanadyl (iv) acetylacetonate (BTC) were purchased from commercial sources and used as received. Information on the characterization of new materials and those that were reported previously, and were used for solubility studies herein, are provided below. Solvent used in solubility measurement were of anhydrous grade and purchased from Sigma Aldrich.

For data set [2] the following is noted: in DMSO and MeCN at 0.01 M, 0.05 M, 0.1 M, 0.2 M, and 0.5 M; 25 °C.
Experimental: The viscosity measurements were collected using the Cannon Instruments Semi-Micro Viscometer. Concentrations of 0.01 M– 0.55 M were used when collecting the viscosity data at ambient temperature (25 °C). The U-tube style viscometer allowed for the collection of kinematic viscosity in centiStokes (cSt) which was then converted to dynamic viscosity in centiPoise (cP) using the electrolyte density.
[3] abbreviates: acetonitrile (MeCN), MeCN (ϵ = 37), +4 state, [Nxxxx]2[VBH].
Setting [4] is: acetonitrile (MeCN), MeCN (ϵ = 37), +5 state, [Nxxxx][VBH].
Where [5] appears, read: dimethyl sulfoxide (DMSO), DMSO (ϵ = 47), +4 state, [Nxxxx]2[VBH].
The mark [6] stands for this setting: dimethyl sulfoxide (DMSO), DMSO (ϵ = 47), +5 state, [Nxxxx][VBH].
Where [7] appears, read: propylene carbonate (PC), PC (ϵ = 66), +4 state, [Nxxxx]2[VBH].
Setting [8] is: propylene carbonate (PC), PC (ϵ = 66), +5 state, [Nxxxx][VBH].

In PMC8672735, “Computational and experimental investigation of the effect of cation structure on the solubility of anionic flow battery active-materials” (Chemical Science, 2021) one finds solubility and viscosity data, which are given here for four compounds.

Like-named read-outs stand apart in the source and are kept apart here.

For the compound `CCC[N+](C)(C)C` [compound 1113], the solubility was 24 mM in data set [1] (setting [3]); 8 mM in data set [1] (setting [4]); 246 mM in data set [1] (setting [5]); 252 mM in data set [1] (setting [6]); 108 mM in data set [1] (setting [7]); 40 mM in data set [1] (setting [8]).

Regarding `CCCC[N+](CCCC)(CCCC)CCCC` [[N4444]2[VBH]], the viscosity entry in data set [2] is listed as “generally increases with solution concentration”.

Take `CCCC[N+](C)(C)C` [compound 1114]: the solubility in data set [1] (setting [3]) was 76 mM; in data set [1] (setting [4]) it was 7 mM; in data set [1] (setting [5]) it was 624 mM; in data set [1] (setting [6]) it was 225 mM; in data set [1] (setting [7]), 377 mM; in data set [1] (setting [8]), 33 mM.

As for `CC[N+](CC)(CC)CC` [compound 2222], the solubility in data set [1] (setting [4]) was determined as 64 mM; in data set [1] (setting [6]), 804 mM; in data set [1] (setting [8]), 215 mM.
